Data taken from patent US11214594B2, “Antimicrobial peptide having synergistic antibacterial effect with antibiotics on multidrug resistant bacteria, and use thereof” (priority 2016, dated 2022).
Values after ≈ are worked out from the molar mass of the structure shown. Where a SMILES comes first, the peptide text is derived from it.

How the values were obtained:
MRSA 3126 = format: cell-based, Staphylococcus aureus; settings: 3126
Summary of the method: (§1)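 Each strain is brought to 2×10^6 CFU in nutrient-sufficient Mueller-Hinton medium and dispensed into wells. Peptide solutions, stepwise diluted 2:1 in the same medium, are then added. The minimal concentration preventing growth gives the MIC.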

MRSA 3114 = format: cell-based, Staphylococcus aureus; settings: 3114
Summary of the method: as §1

MDRAB 12035 [1] = test: microbe, parasite or virus in culture; format: cell-based, Acinetobacter baumannii
Summary of the method: as §1

A. baumannii = test: microbe, parasite or virus in culture; format: cell-based, Acinetobacter baumannii
Summary of the method: as §1

MDRAB 12036 = format: cell-based, Acinetobacter baumannii
Summary of the method: as §1

MDRAB 12035 [2] = test: MIC of antibiotic during combined treatment with antimicrobial peptide; format: cell-based, Acinetobacter baumannii
Method: Specifically, the strains described in [Table 2] were prepared and diluted with an MH medium such that the number of bacteria was 2×10^6 colony-forming units (CFUs) per 1 ml, 100 μl of the diluted strains was each aliquoted into a 96-well microtiter plate, and then 50 μl of a peptide solution diluted with the MH medium from the MIC value (solution diluted stepwise at 2: 1) was added to each well. Thereafter, the MIC value of each mixed solution was determined by diluting the antibiotic solution with the MH medium, adding 50 μl of the diluted solution to each well, and performing an experiment even under a reversed condition.

MDRPA 2003 = format: cell-based, Pseudomonas aeruginosa
Summary of the method: as §1

MDRPA 2002 = format: cell-based, Pseudomonas aeruginosa
Summary of the method: as §1

S. typhimurium = test: microbe, parasite or virus in culture; format: cell-based, Salmonella typhimurium
Summary of the method: as §1

MDRST 8007 = test: Minimal inhibitory concentration (MIC), single agent; format: cell-based, Salmonella typhimurium; settings: agent alone
Summary of the method: as §1

S. aureus = test: microbe, parasite or virus in culture; format: cell-based, Staphylococcus aureus
Summary of the method: as §1

MDREC 1238 = format: cell-based, Escherichia coli
Summary of the method: as §1

[3] = peptide treatment concentration 1 μg/ml
[4] = peptide treatment concentration 2 μg/ml
[5] = peptide treatment concentration 4 μg/ml
[6] = peptide treatment concentration 6 μg/ml
[7] = peptide treatment concentration 8 μg/ml
[8] = peptide treatment concentration 16 μg/ml
[9] = peptide treatment concentration 32 μg/ml
[10] = peptide treatment concentration 64 μg/ml

Row | SMILES | Minimal inhibitory concentration MIC (MRSA 3126) | Minimal inhibitory concentration MIC (MRSA 3114) | Minimal inhibitory concentration MIC (MDRAB 12035 [1]) | Peptide MIC, peptide alone (MDRAB 12035 [1]) | Minimal inhibitory concentration MIC (A. baumannii) | Peptide MIC, peptide alone (A. baumannii) | Minimal inhibitory concentration MIC (MDRAB 12036) | Erythromycin MIC during combined treatment with peptide (MDRAB 12035 [2]; [3]) | Linezolid MIC during combined treatment with peptide (MDRAB 12035 [2]; [3]) | Vancomycin MIC during combined treatment with peptide (MDRAB 12035 [2]; [3]) | Erythromycin MIC during combined treatment with peptide (MDRAB 12035 [2]; [4]) | Linezolid MIC during combined treatment with peptide (MDRAB 12035 [2]; [4]) | Vancomycin MIC during combined treatment with peptide (MDRAB 12035 [2]; [4]) | Erythromycin MIC during combined treatment with peptide (MDRAB 12035 [2]; [5]) | Linezolid MIC during combined treatment with peptide (MDRAB 12035 [2]; [5]) | Vancomycin MIC during combined treatment with peptide (MDRAB 12035 [2]; [5]) | Erythromycin MIC during combined treatment with peptide (MDRAB 12035 [2]; [6]) | Linezolid MIC during combined treatment with peptide (MDRAB 12035 [2]; [6]) | Vancomycin MIC during combined treatment with peptide (MDRAB 12035 [2]; [6]) | Erythromycin MIC during combined treatment with peptide (MDRAB 12035 [2]; [7]) | also measured
1 | CC[C@H](C)[C@H](NC(=O)[C@H](CCCCN)NC(=O)[C@H](Cc1c[nH]c2ccccc12)NC(=O)[C@@H](N)CCCNC(=N)N)C(=O)N[C@@H](Cc1ccccc1)C(=O)N[C@@H](CCCCN)C(=O)N[C@@H](CCCCN)C(=O)N[C@H](C(=O)N1CCC[C@H]1C(=O)N[C@@H](CCCCN)C(=O)N[C@@H](Cc1ccccc1)C(=O)N[C@@H](CC(C)C)C(=O)N[C@@H](Cc1c[nH]cn1)C(=O)N[C@@H](CCC(=O)O)C(=O)N[C@@H](C)C(=O)N[C@@H](CCCCN)C(=O)N[C@@H](CCCCN)C(=O)N[C@@H](Cc1ccccc1)C(N)=O)[C@@H](C)CC [PapMA-11, RWK IFK KIP KFL HEA KKF-NH2] (H-RWKIFKKIPKFLHEAKKF-NH2; N-terminus assumed) | >128 mg/L | >128 mg/L | 64 mg/L (≈ 27.3 µM) | 64 mg/L | 64 mg/L (≈ 27.3 µM) | 64 mg/L | 64 mg/L (≈ 27.3 µM) | 32 mg/L | >128 mg/L | >128 mg/L | 16 mg/L | 128 mg/L | 128 mg/L | 8 mg/L | 64 mg/L | 64 mg/L | 2 mg/L | 32 mg/L | 32 mg/L | 1 mg/L | Linezolid MIC during combined treatment with peptide (MDRAB 12035 [2]; [7]): 16 mg/L; Vancomycin MIC during combined treatment with peptide (MDRAB 12035 [2]; [7]): 32 mg/L; Erythromycin MIC during combined treatment with peptide (MDRAB 12035 [2]; [8]): 0.5 mg/L; Linezolid MIC during combined treatment with peptide (MDRAB 12035 [2]; [8]): 8 mg/L; Vancomycin MIC during combined treatment with peptide (MDRAB 12035 [2]; [8]): 16 mg/L; Erythromycin MIC during combined treatment with peptide (MDRAB 12035 [2]; [9]): 0.125 mg/L; Linezolid MIC during combined treatment with peptide (MDRAB 12035 [2]; [9]): 2 mg/L; Vancomycin MIC during combined treatment with peptide (MDRAB 12035 [2]; [9]): 4 mg/L; Erythromycin MIC during combined treatment with peptide (MDRAB 12035 [2]; [10]): 0 mg/L; Linezolid MIC during combined treatment with peptide (MDRAB 12035 [2]; [10]): 0 mg/L; Vancomycin MIC during combined treatment with peptide (MDRAB 12035 [2]; [10]): 0 mg/L; Minimal inhibitory concentration MIC (MDRPA 2003): >128 mg/L; Minimal inhibitory concentration MIC (MDRPA 2002): 128 mg/L (≈ 54.6 µM); Minimal inhibitory concentration MIC (S. typhimurium): 64 mg/L (≈ 27.3 µM); Minimal inhibitory concentration MIC (MDRST 8007): 64 mg/L (≈ 27.3 µM); Minimal inhibitory concentration MIC (S. aureus): >128 mg/L; Minimal inhibitory concentration MIC (MDREC 1238): 64 mg/L (≈ 27.3 µM)
2 | CC[C@H](C)[C@H](NC(=O)[C@H](CCCCN)NC(=O)[C@H](Cc1c[nH]c2ccccc12)NC(=O)[C@@H](N)CCCNC(=N)N)C(=O)N[C@@H](Cc1ccccc1)C(=O)N[C@@H](CCCCN)C(=O)N[C@@H](CCCCN)C(=O)N[C@H](C(=O)N1CCC[C@H]1C(=O)N[C@@H](CCCCN)C(=O)N[C@@H](Cc1ccccc1)C(=O)N[C@@H](CC(C)C)C(=O)N[C@@H](Cc1c[nH]cn1)C(=O)N[C@@H](CO)C(=O)N[C@@H](Cc1ccccc1)C(=O)N[C@@H](CCCCN)C(=O)N[C@@H](CCCCN)C(=O)N[C@@H](Cc1ccccc1)C(N)=O)[C@@H](C)CC [PapMA-5, RWK IFK KIP KFL HSF KKF-NH2] (H-RWKIFKKIPKFLHSFKKF-NH2; N-terminus assumed) | >128 mg/L | >128 mg/L | 64 mg/L (≈ 26.9 µM) | 64 mg/L | 64 mg/L (≈ 26.9 µM) | 64 mg/L | 64 mg/L (≈ 26.9 µM) | 32 mg/L | >128 mg/L | >128 mg/L | 32 mg/L | 128 mg/L | >128 mg/L | 16 mg/L | 64 mg/L | 128 mg/L | 2 mg/L | 16 mg/L | 32 mg/L | 1 mg/L | Linezolid MIC during combined treatment with peptide (MDRAB 12035 [2]; [7]): 8 mg/L; Vancomycin MIC during combined treatment with peptide (MDRAB 12035 [2]; [7]): 16 mg/L; Erythromycin MIC during combined treatment with peptide (MDRAB 12035 [2]; [8]): 0.25 mg/L; Linezolid MIC during combined treatment with peptide (MDRAB 12035 [2]; [8]): 8 mg/L; Vancomycin MIC during combined treatment with peptide (MDRAB 12035 [2]; [8]): 8 mg/L; Erythromycin MIC during combined treatment with peptide (MDRAB 12035 [2]; [9]): 0.125 mg/L; Linezolid MIC during combined treatment with peptide (MDRAB 12035 [2]; [9]): 4 mg/L; Vancomycin MIC during combined treatment with peptide (MDRAB 12035 [2]; [9]): 4 mg/L; Erythromycin MIC during combined treatment with peptide (MDRAB 12035 [2]; [10]): 0 mg/L; Linezolid MIC during combined treatment with peptide (MDRAB 12035 [2]; [10]): 0 mg/L; Vancomycin MIC during combined treatment with peptide (MDRAB 12035 [2]; [10]): 0 mg/L; Minimal inhibitory concentration MIC (MDRPA 2003): 16 mg/L (≈ 6.73 µM); Minimal inhibitory concentration MIC (MDRPA 2002): 16 mg/L (≈ 6.73 µM); Minimal inhibitory concentration MIC (S. typhimurium): 64 mg/L (≈ 26.9 µM); Minimal inhibitory concentration MIC (MDRST 8007): 64 mg/L (≈ 26.9 µM); Minimal inhibitory concentration MIC (S. aureus): >128 mg/L; Minimal inhibitory concentration MIC (MDREC 1238): 64 mg/L (≈ 26.9 µM)
